Inconclusive results and toxic doses are left out.
Test system: P388 leukemia ip, CD2F1 mice, survival T/C
Test: NCI In Vivo Anticancer Drug Screen. Data for tumor model P388 Leukemia (intraperitoneal) in CD2F1 (CDF1) mice
Conditions: endpoint: median survival time, higher = longer survival
Summary of the method: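 Mice carrying the transplanted tumor received test compound or vehicle. Survival was recorded in each group, and the value is the treated-group measurement divided by that of the vehicle-treated control group.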

[1] = dose: 60.0 mg/kg/injection, schedule: Q01DX005 (ip), vehicle: saline with Tween-80
[2] = dose: 120.0 mg/kg/injection, schedule: Q01DX005 (ip), vehicle: saline with Tween-80
[3] = dose: 240.0 mg/kg/injection, schedule: Q01DX005 (ip), vehicle: saline with Tween-80
[4] = dose: 50.0 mg/kg/injection, schedule: Q01DX005 (ip), vehicle: Klucel (hydroxypropylcellulose) (HPC)
[5] = dose: 100.0 mg/kg/injection, schedule: Q01DX005 (ip), vehicle: Klucel (hydroxypropylcellulose) (HPC)
[6] = dose: 200.0 mg/kg/injection, schedule: Q01DX005 (ip), vehicle: Klucel (hydroxypropylcellulose) (HPC)
[7] = dose: 50.0 mg/kg/injection, schedule: Q01DX005 (ip), vehicle: saline with Tween-80
[8] = dose: 100.0 mg/kg/injection, schedule: Q01DX005 (ip), vehicle: saline with Tween-80
[9] = dose: 200.0 mg/kg/injection, schedule: Q01DX005 (ip), vehicle: saline with Tween-80
[10] = dose: 50.0 mg/kg/injection, schedule: Q01DX009 (ip), vehicle: saline
[11] = dose: 100.0 mg/kg/injection, schedule: Q01DX009 (ip), vehicle: saline
[12] = dose: 100.0 mg/kg/injection, schedule: Q01DX001 (ip), vehicle: Klucel (hydroxypropylcellulose) (HPC)
[13] = dose: 200.0 mg/kg/injection, schedule: Q01DX001 (ip), vehicle: Klucel (hydroxypropylcellulose) (HPC)
[14] = dose: 400.0 mg/kg/injection, schedule: Q01DX001 (ip), vehicle: Klucel (hydroxypropylcellulose) (HPC)

For Cc1onc(-c2c(F)cccc2Cl)c1-c1ncc(-c2ccc(Br)cc2)o1, the T/C [1] was 100 % of control, the T/C [2] was 104 % of control and the T/C [3] was 101 % of control.

For CC1(C)Nc2cccc3cccc(c23)N1, the T/C [4] was 108 % of control and the T/C [5] was 86 % of control.

In the case of C[Si](C)(C)N1[Si](C)(C)N[Si](C)(C)N([Si](C)(C)F)[Si]1(C)C, the T/C [4] is reported as 113 % of control, the T/C [5] is reported as 105 % of control and the T/C [6] is reported as 104 % of control.

With Oc1cc(O)c2c(c1)Oc1cc(O)cc(O)c1C2 the T/C (dose: 25.0 mg/kg/injection, schedule: Q04DX003 (ip), vehicle: saline with Tween-80) was 100 % of control, the T/C [7] was 106 % of control and the T/C (dose: 50.0 mg/kg/injection, schedule: Q04DX003 (ip), vehicle: saline with Tween-80) was 98 % of control. The T/C [8] was 109 % of control, the T/C (dose: 100.0 mg/kg/injection, schedule: Q04DX003 (ip), vehicle: saline with Tween-80) was 97 % of control and the T/C [9] was 115 % of control.

In the case of CCSC(=S)N(CC)c1nc2ccccc2o1, the T/C (dose: 100.0 mg/kg/injection, schedule: Q04DX002 (ip), vehicle: saline with Tween-80) is reported as 105 % of control, the T/C (dose: 200.0 mg/kg/injection, schedule: Q04DX002 (ip), vehicle: saline with Tween-80) is reported as 113 % of control and the T/C (dose: 400.0 mg/kg/injection, schedule: Q04DX002 (ip), vehicle: saline with Tween-80) is reported as 122 % of control.

With CC(=O)C1C(=O)C(=O)N(c2ccc(C)c(C)c2)C1=O (stereo unspecified) the T/C [7] was 101 % of control, the T/C [8] was 97 % of control and the T/C [9] was 100 % of control.

Cc1ccc2nc(N(C)C)cc(N(C)C)c2c1 was tested, and the T/C (dose: 6.25 mg/kg/injection, schedule: Q01DX009 (ip), vehicle: Klucel (hydroxypropylcellulose) (HPC)) was 99 % of control, the T/C (dose: 12.5 mg/kg/injection, schedule: Q01DX009 (ip), vehicle: Klucel (hydroxypropylcellulose) (HPC)) was 110 % of control and the T/C (dose: 25.0 mg/kg/injection, schedule: Q01DX009 (ip), vehicle: Klucel (hydroxypropylcellulose) (HPC)) was 103 % of control.

In the case of Cc1nc2c(ccc3ccccc32)s1, the T/C [4] is reported as 106 % of control, the T/C [5] is reported as 100 % of control and the T/C [6] is reported as 100 % of control.

Cc1nc2[nH]c(=S)[nH]c(=O)c2[nH]c1=O was tested, and the T/C (dose: 12.5 mg/kg/injection, schedule: Q01DX009 (ip), vehicle: saline) was 97 % of control, the T/C (dose: 25.0 mg/kg/injection, schedule: Q01DX009 (ip), vehicle: saline) was 114 % of control and the T/C [10] was 120 % of control. For the same molecule, the T/C [11] was 120 % of control.

OCC(O)COCCCCCCCCCCCCCC1C=CCC1 (stereo unspecified) was tested, and the T/C (dose: 100.0 mg/kg/injection, schedule: Q04DX003 (ip), vehicle: saline) was 95 % of control, the T/C (dose: 200.0 mg/kg/injection, schedule: Q04DX003 (ip), vehicle: saline) was 89 % of control and the T/C (dose: 400.0 mg/kg/injection, schedule: Q04DX003 (ip), vehicle: saline) was 96 % of control.

For O=CNc1cccc(NC=O)c1, the T/C (dose: 25.0 mg/kg/injection, schedule: Q01DX009 (ip), vehicle: distilled water + Tween-80) was 111 % of control, the T/C (dose: 50.0 mg/kg/injection, schedule: Q01DX009 (ip), vehicle: distilled water + Tween-80) was 100 % of control and the T/C (dose: 100.0 mg/kg/injection, schedule: Q01DX009 (ip), vehicle: distilled water + Tween-80) was 100 % of control. For the same molecule, the T/C (dose: 200.0 mg/kg/injection, schedule: Q01DX009 (ip), vehicle: distilled water + Tween-80) was 100 % of control.

With C1=CC(Cc2ccccc2)NC1 (stereo unspecified) the T/C (dose: 100.0 mg/kg/injection, schedule: Q01DX001 (ip), vehicle: distilled water + alcohol) was 100 % of control and the T/C (dose: 200.0 mg/kg/injection, schedule: Q01DX001 (ip), vehicle: distilled water + alcohol) was 100 % of control.

With NCC(=O)O.[Cl][Ga]([Cl])[Cl] the T/C (dose: 66.0 mg/kg/injection, schedule: Q01DX009 (ip), vehicle: saline) was 110 % of control, the T/C [11] was 110 % of control and the T/C (dose: 100.0 mg/kg/injection, schedule: Q04DX003 (ip), vehicle: saline sonified) was 104 % of control. The T/C (dose: 150.0 mg/kg/injection, schedule: Q01DX009 (ip), vehicle: saline) was 120 % of control.

CCOC(=O)Cn1cnc2sc3c(c2c1=O)CCCC3 was tested, and the T/C [7] was 100 % of control, the T/C [8] was 98 % of control and the T/C [9] was 89 % of control.

In the case of Cc1cc(C(C)CC(=O)O)c(C)c(C)c1C (stereo unspecified), the T/C (dose: 50.0 mg/kg/injection, schedule: Q01DX009 (ip), vehicle: saline with Tween-80) is reported as 96 % of control, the T/C (dose: 100.0 mg/kg/injection, schedule: Q01DX009 (ip), vehicle: saline with Tween-80) is reported as 93 % of control and the T/C (dose: 200.0 mg/kg/injection, schedule: Q01DX009 (ip), vehicle: saline with Tween-80) is reported as 108 % of control.

COc1cc(C(C)=O)c(C2=NC(C)(C)CO2)cc1C was tested, and the T/C [7] was 101 % of control, the T/C [8] was 98 % of control and the T/C [9] was 97 % of control.

With CCOC(=O)C(Cc1ccc(N(CCCl)CCCl)cc1)NC(=O)C(NC(C)=O)C(C)C (stereo unspecified) the T/C (dose: 5.0 mg/kg/injection, schedule: Q04DX003 (ip), vehicle: water) was 123 % of control, the T/C (dose: 20.0 mg/kg/injection, schedule: Q04DX003 (ip), vehicle: water) was 160 % of control and the T/C (dose: 40.0 mg/kg/injection, schedule: Q04DX003 (ip), vehicle: water) was 241 % of control.

With COC(=O)C1(CC(=O)c2cccc3ccccc23)NC(=S)NC(=O)C1C#N (stereo unspecified) the T/C [1] was 101 % of control, the T/C [2] was 101 % of control and the T/C [3] was 102 % of control.

For COc1ccc2c(c1)[C@@]13CCCCC1[C@@H](C2)NCC3 (stereo partly specified), the T/C (dose: 100.0 mg/kg/injection, schedule: Q04DX002 (ip), vehicle: Klucel (hydroxypropylcellulose) (HPC)) was 101 % of control.

Cc1ccoc1OP(=O)(N(C)C)N(C)C was tested, and the T/C (dose: 15.0 mg/kg/injection, schedule: Q01DX005 (ip), vehicle: saline) was 102 % of control, the T/C (dose: 30.0 mg/kg/injection, schedule: Q01DX005 (ip), vehicle: saline) was 100 % of control and the T/C (dose: 60.0 mg/kg/injection, schedule: Q01DX005 (ip), vehicle: saline) was 108 % of control.

CCC(C)c1cc(/C=C2/OC(=O)c3ccccc32)cc(C(C)CC)c1O (stereo unspecified) was tested, and the T/C (dose: 100.0 mg/kg/injection, schedule: Q04DX002 (ip), vehicle: saline) was 100 % of control, the T/C (dose: 200.0 mg/kg/injection, schedule: Q04DX002 (ip), vehicle: saline) was 99 % of control and the T/C (dose: 400.0 mg/kg/injection, schedule: Q04DX002 (ip), vehicle: saline) was 93 % of control.

For O=C1CC2CCC(C1)N2C(=O)Oc1ccccc1, the T/C [12] was 101 % of control, the T/C [13] was 93 % of control and the T/C [14] was 92 % of control.

In the case of CN(C)c1ccc(P(=O)(O)O)c(Cl)c1, the T/C [12] is reported as 99 % of control, the T/C [13] is reported as 96 % of control and the T/C [14] is reported as 96 % of control.

In the case of CC(NC(=O)CNC(=O)CN)C(N)=O (stereo unspecified), the T/C (dose: 50.0 mg/kg/injection, schedule: Q01DX005 (ip), vehicle: saline) is reported as 101 % of control, the T/C (dose: 100.0 mg/kg/injection, schedule: Q01DX005 (ip), vehicle: saline) is reported as 99 % of control and the T/C (dose: 200.0 mg/kg/injection, schedule: Q01DX005 (ip), vehicle: saline) is reported as 101 % of control.

With Cc1ccccc1CN1C2=NCCN2C(=O)C2=C1CCN(S(=O)(=O)c1ccc(Cl)c(S(N)(=O)=O)c1)C2 the T/C [10] was 96 % of control, the T/C [11] was 97 % of control and the T/C (dose: 200.0 mg/kg/injection, schedule: Q01DX009 (ip), vehicle: saline) was 90 % of control.

With O=[N+]([O-])c1cccc2c1nnn2OC1CCCC1 the T/C (dose: 100.0 mg/kg/injection, schedule: Q01DX001 (ip), vehicle: saline with Tween-80) was 102 % of control and the T/C (dose: 200.0 mg/kg/injection, schedule: Q01DX001 (ip), vehicle: saline with Tween-80) was 98 % of control.

In the case of CCCCNC1C2CCC(C)(C1O)C2(C)C (stereo unspecified), the T/C [4] is reported as 97 % of control.

In the case of CC(=O)OC(C[N+](=O)[O-])C(Cl)(Cl)Cl (stereo unspecified), the T/C (dose: 6.25 mg/kg/injection, schedule: Q01DX009 (ip), vehicle: saline with Tween-80) is reported as 104 % of control, the T/C (dose: 12.5 mg/kg/injection, schedule: Q01DX009 (ip), vehicle: saline with Tween-80) is reported as 109 % of control and the T/C (dose: 25.0 mg/kg/injection, schedule: Q01DX009 (ip), vehicle: saline with Tween-80) is reported as 100 % of control.

CNC(=O)Nc1cccc(C2(C)OCCS2)c1 (stereo unspecified) was tested, and the T/C [1] was 100 % of control, the T/C [2] was 94 % of control and the T/C [3] was 99 % of control.

In the case of C=C(N=[N+]=[N-])c1ccccc1, the T/C (dose: 6.25 mg/kg/injection, schedule: Q01DX009 (ip), vehicle: other) is reported as 101 % of control, the T/C (dose: 12.5 mg/kg/injection, schedule: Q01DX009 (ip), vehicle: other) is reported as 106 % of control and the T/C (dose: 25.0 mg/kg/injection, schedule: Q01DX009 (ip), vehicle: other) is reported as 112 % of control. For the same molecule, the T/C (dose: 50.0 mg/kg/injection, schedule: Q01DX009 (ip), vehicle: other) was 117 % of control and the T/C (dose: 100.0 mg/kg/injection, schedule: Q01DX009 (ip), vehicle: other) was 107 % of control.

Source: PubChem BioAssay AID330 (DTP/NCI, 2004)
